Laboratory results reported in patent US9242970B2 (ACTELION PHARMACEUTICALS LTD., priority 2010, dated 2016).
Read-outs that look alike come from different tables or passages of the source.

Experiments:
[1] = molecular target: human orexin-1 receptor (Homo sapiens (Human), UniProt O43613); experiment: In vitro assay: intracellular calcium measurements (FLIPR), antagonistic activity; type: cell-based; conditions: CHO cells, 3 nM orexin-A, marked values are geometric means of n = 2-6, read-out: IC50 OX1
Chain of human orexin-1 receptor (O43613 whole entry): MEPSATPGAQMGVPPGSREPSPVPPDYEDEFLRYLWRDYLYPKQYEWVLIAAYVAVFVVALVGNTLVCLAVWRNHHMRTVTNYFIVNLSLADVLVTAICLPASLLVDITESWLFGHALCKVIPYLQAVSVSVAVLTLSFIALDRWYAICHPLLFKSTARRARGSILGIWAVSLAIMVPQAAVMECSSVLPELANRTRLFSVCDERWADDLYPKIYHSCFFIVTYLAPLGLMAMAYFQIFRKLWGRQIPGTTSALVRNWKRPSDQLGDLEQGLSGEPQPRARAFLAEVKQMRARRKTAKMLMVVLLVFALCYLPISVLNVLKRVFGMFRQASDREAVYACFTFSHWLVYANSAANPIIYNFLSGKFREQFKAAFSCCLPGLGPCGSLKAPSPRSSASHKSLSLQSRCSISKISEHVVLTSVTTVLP

[2] = molecular target: human orexin-2 receptor (Homo sapiens (Human), UniProt O43614); experiment: as above; type: cell-based; conditions: CHO cells, 3 nM orexin-A, marked values are geometric means of n = 2-6, read-out: IC50 OX2
Chain of human orexin-2 receptor (O43614 whole entry): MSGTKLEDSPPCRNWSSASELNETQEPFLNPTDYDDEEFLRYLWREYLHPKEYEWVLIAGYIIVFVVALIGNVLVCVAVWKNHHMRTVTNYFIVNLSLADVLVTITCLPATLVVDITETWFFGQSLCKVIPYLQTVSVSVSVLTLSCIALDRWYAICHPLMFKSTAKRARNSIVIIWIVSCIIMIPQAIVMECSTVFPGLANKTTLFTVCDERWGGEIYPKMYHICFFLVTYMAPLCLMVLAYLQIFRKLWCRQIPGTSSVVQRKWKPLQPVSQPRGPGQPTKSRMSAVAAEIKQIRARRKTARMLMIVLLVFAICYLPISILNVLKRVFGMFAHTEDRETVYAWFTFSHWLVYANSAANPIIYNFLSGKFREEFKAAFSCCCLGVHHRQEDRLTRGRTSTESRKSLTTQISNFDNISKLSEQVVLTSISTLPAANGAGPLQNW

[3] = compound incubation time of 10 min

Row | Compound | IC50 [1, 3] | IC50 [2, 3] | IC50 ([1]; compound incubation 120 min) | IC50 ([2]; compound incubation 120 min)
1 | COc1cccc(OC)c1C1CC(F)(F)C(=O)N1Cc1ccc(OC(F)(F)F)cc1 (stereo not drawn) [Example 256, 5-(2,6-dimethoxyphenyl)-3,3-difluoro-1-(4-(trifluoromethoxy)benzyl)pyrrolidin-2-one] | 193 nM | 133 nM | – | –
2 | COc1ccc2ncoc2c1C1CCCC(=O)N1Cc1cccc(-c2csc(C)n2)c1 (stereo not drawn) [Example 455, 6-(6-methoxybenzo[d]oxazol-7-yl)-1-(3-(2-methylthiazol-4-yl)benzyl)piperidin-2-one] | – | – | 57 nM | 102 nM
3 | COc1ccc2c(c1C1CCCC(=O)N1Cc1cccc(-c3csc(C)n3)c1)OCCO2 (stereo not drawn) [Example 443, 6-(6-methoxy-2,3-dihydrobenzo[b][1,4]dioxin-5-yl)-1-(3-(2-methylthiazol-4-yl)benzyl)piperidin-2-one] | – | – | 5 nM | 13 nM
4 | COc1ccnc(OC)c1C1CCCC(=O)N1Cc1ccc2nc(C)sc2c1 (stereo not drawn) [Example 58, 6-(2,4-dimethoxypyridin-3-yl)-1-((2-methylbenzo[d]thiazol-6-yl)methyl)piperidin-2-one] | – | – | 2560 nM | 1530 nM
5 | COc1ccc2nc(C)oc2c1C1CCCC(=O)N1Cc1ccc2ccccc2n1 (stereo not drawn) [Example 279, 6-(6-methoxy-2-methylbenzo[d]oxazol-7-yl)-1-(quinolin-2-ylmethyl)piperidin-2-one] | – | – | 623 nM | 1030 nM
6 | COc1cccc(OCC(O)CO)c1C1CCCC(=O)N1Cc1ccc(OC(F)(F)F)cc1 (stereo not drawn) [Example 214, 6-(2-(2,3-dihydroxypropoxy)-6-methoxyphenyl)-1-(4-(trifluoromethoxy)benzyl)piperidin-2-one] | 3540 nM | 735 nM | – | –
7 | COc1cccc(OC)c1C1CC(C)C(=O)N1Cc1cccc(OCC(F)F)c1 (stereo not drawn) [Example 419, 1-(3-(2,2-difluoroethoxy)benzyl)-5-(2,6-dimethoxyphenyl)-3-methylpyrrolidin-2-one] | – | – | 143 nM | 173 nM
8 | COc1cccc(OC)c1[C@@H]1C[C@H](Cl)C(=O)N1Cc1ccc(OC(F)(F)F)cc1 (racemic) [Example 261, rac-(3S*,5S*)-3-chloro-5-(2,6-dimethoxyphenyl)-1-(4-(trifluoromethoxy)benzyl)pyrrolidin-2-one] | 65 nM | 41 nM | – | –
9 | COc1cccc(OC)c1C1CCC(C)(C)C(=O)N1Cc1ccc(OC(F)(F)F)cc1 (stereo not drawn) [Example 215, 6-(2,6-dimethoxyphenyl)-3,3-dimethyl-1-(4-(trifluoromethoxy)benzyl)piperidin-2-one] | 1410 nM | 1290 nM | – | –
10 | COc1ccccc1C1CCCC(=O)N1Cc1ccc(OC(F)(F)F)cc1 (stereo not drawn) [Example 237, 6-(2-methoxyphenyl)-1-(4-(trifluoromethoxy)benzyl)piperidin-2-one] | 3490 nM | 635 nM | – | –
11 | O=C1CCCC(c2ccnn2-c2ccccc2)N1Cc1cccc(-c2ccccc2)c1 (stereo not drawn) [Example 456, 1-([1,1′-biphenyl]-3-ylmethyl)-6-(1-phenyl-1H-pyrazol-5-yl)piperidin-2-one] | – | – | 654 nM | 716 nM
12 | COc1cccc(OC)c1C1CCCCC(=O)N1Cc1cccc(-c2ncc(C)s2)c1 (stereo not drawn) [Example 100, 7-(2,6-dimethoxyphenyl)-1-(3-(5-methylthiazol-2-yl)benzyl)azepan-2-one] | – | – | 1 nM | 3 nM
13 | COc1cccc(OC)c1C1CCCC(=O)N1Cc1cccc(OC(F)F)c1 (stereo not drawn) [Example 178, 1-(3-(difluoromethoxy)benzyl)-6-(2,6-dimethoxyphenyl)piperidin-2-one] | 215 nM | 78 nM | – | –
14 | COc1cccc(OC)c1C1CC(C)C(=O)N1Cc1cccc(-c2noc(C)n2)c1 (stereo not drawn) [Example 143, 5-(2,6-dimethoxyphenyl)-3-methyl-1-(3-(5-methyl-1,2,4-oxadiazol-3-yl)benzyl)pyrrolidin-2-one] | – | – | 27 nM | 46 nM
15 | COc1cccc(OC)c1C1CC(C)C(=O)N1Cc1cccc(-n2cccn2)n1 (stereo not drawn) [Example 155, 1-((6-(1H-pyrazol-1-yl)pyridin-2-yl)methyl)-5-(2,6-dimethoxyphenyl)-3-methylpyrrolidin-2-one] | – | – | 134 nM | 1180 nM
16 | CCOc1cccc(F)c1C1CC(C)C(=O)N1Cc1cnc2ccccc2c1 (stereo not drawn) [Example 378, 5-(2-ethoxy-6-fluorophenyl)-3-methyl-1-(quinolin-3-ylmethyl)pyrrolidin-2-one] | – | – | 1640 nM | 690 nM
17 | COc1cccc(OC)c1C1CCCC(=O)N1Cc1cnc2ccccc2c1 (stereo not drawn) [Example 1, 6-(2,6-dimethoxyphenyl)-1-(quinolin-3-ylmethyl)piperidin-2-one] | 643 nM | 209 nM | – | –
18 | COc1cccc(OC)c1C1CCCC(=O)N1Cc1ccnc(-c2nccs2)c1 (stereo not drawn) [Example 219, 6-(2,6-dimethoxyphenyl)-1-((2-(thiazol-2-yl)pyridin-4-yl)methyl)piperidin-2-one] | – | – | 19 nM | 9 nM

Row | Compound | IC50 [1, 3] | IC50 [2, 3] | IC50 ([1]; compound incubation 120 min) | IC50 ([2]; compound incubation 120 min)
19 | COc1cncc(OC)c1C1CCCC(=O)N1Cc1cccc(-c2csc(C)n2)c1 (stereo not drawn) [Example 62, 6-(3,5-dimethoxypyridin-4-yl)-1-(3-(2-methylthiazol-4-yl)benzyl)piperidin-2-one] | – | – | 25 nM | 33 nM
20 | COc1cccc(OC)c1C1CC(C)C(=O)N1Cc1ccc(OC(F)(F)F)c(F)c1 (stereo not drawn) [Example 400, 5-(2,6-dimethoxyphenyl)-1-(3-fluoro-4-(trifluoromethoxy)benzyl)-3-methylpyrrolidin-2-one] | – | – | 151 nM | 183 nM
21 | CCOc1cccc(F)c1C1CC(C)C(=O)N1Cc1ccc(OC(F)(F)F)c(F)c1 (stereo not drawn) [Example 372, 5-(2-ethoxy-6-fluorophenyl)-1-(3-fluoro-4-(trifluoromethoxy)benzyl)-3-methylpyrrolidin-2-one] | – | – | 1490 nM | 115 nM
22 | COc1ccc2c(c1C1CCCC(=O)N1Cc1cccc(Oc3ccccc3)c1)OCO2 (stereo not drawn) [Example 458, 6-(5-methoxybenzo[d][1,3]dioxol-4-yl)-1-(3-phenoxybenzyl)piperidin-2-one] | – | – | 142 nM | 14 nM
23 | COc1cccc(OC)c1C1CCCC(=O)N1Cc1cnn(-c2ccccc2)c1 (stereo not drawn) [Example 26, 6-(2,6-dimethoxyphenyl)-1-((1-phenyl-1H-pyrazol-4-yl)methyl)piperidin-2-one] | – | – | 167 nM | 115 nM
24 | COc1cccc(OC)c1C1CCCC(=O)N1Cc1cccc(-n2cccn2)c1 (stereo not drawn) [Example 19, 1-(3-(1H-pyrazol-1-yl)benzyl)-6-(2,6-dimethoxyphenyl)piperidin-2-one] | – | – | 25 nM | 26 nM
25 | COc1cccc(OC)c1C1CC(C)CC(=O)N1Cc1ccc(OC(F)(F)F)cc1 (stereo not drawn) [Example 173, 6-(2,6-dimethoxyphenyl)-4-methyl-1-(4-(trifluoromethoxy)benzyl)piperidin-2-one] | 537 nM | 297 nM | – | –
26 | CCOc1cccc(F)c1[C@@H]1C[C@H](F)C(=O)N1Cc1ccc(OC(F)(F)F)cc1 (racemic) [Example 342, rac-(3S*,5S*)-5-(2-ethoxy-6-fluorophenyl)-3-fluoro-1-(4-(trifluoromethoxy)benzyl)pyrrolidin-2-one] | – | – | 1110 nM | 8 nM
27 | COc1cccc(OC)c1C1CC(C)C(=O)N1Cc1cccc(-n2nccn2)c1 (stereo not drawn) [Example 149, 1-(3-(2H-1,2,3-triazol-2-yl)benzyl)-5-(2,6-dimethoxyphenyl)-3-methylpyrrolidin-2-one] | – | – | 6 nM | 77 nM
28 | COc1ccc2c(c1C1CCCC(=O)N1Cc1csc(-c3ccccc3)n1)OCO2 (stereo not drawn) [Example 459, 6-(5-methoxybenzo[d][1,3]dioxol-4-yl)-1-((2-phenylthiazol-4-yl)methyl)piperidin-2-one] | – | – | 108 nM | 40 nM
29 | COc1cccc(OC)c1C1CCCC(=O)N1Cc1cnc(-c2ccccc2)s1 (stereo not drawn) [Example 21, 6-(2,6-dimethoxyphenyl)-1-((2-phenylthiazol-5-yl)methyl)piperidin-2-one] | – | – | 951 nM | 366 nM
30 | COc1ncnc(OC)c1C1CCCC(=O)N1Cc1csc(-c2ccccc2)n1 (stereo not drawn) [Example 271, 6-(4,6-dimethoxypyrimidin-5-yl)-1-((2-phenylthiazol-4-yl)methyl)piperidin-2-one] | – | – | 5690 nM | 256 nM
31 | CCCOc1ccc(CN2C(=O)CCCC2c2c(OC)cccc2OC)cc1 (stereo not drawn) [Example 207, 6-(2,6-dimethoxyphenyl)-1-(4-propoxybenzyl)piperidin-2-one] | 169 nM | 35 nM | – | –
32 | CCOc1cccc(OC)c1C1CCCC(=O)N1Cc1ccc(OC(F)(F)F)cc1 (stereo not drawn) [Example 212, 6-(2-ethoxy-6-methoxyphenyl)-1-(4-(trifluoromethoxy)benzyl)piperidin-2-one] | 216 nM | 37 nM | – | –
33 | COc1cccc(OC)c1C1CCCCC(=O)N1Cc1cncc(-c2ccccc2)c1 (stereo not drawn) [Example 92, 7-(2,6-dimethoxyphenyl)-1-((5-phenylpyridin-3-yl)methyl)azepan-2-one] | – | – | 1060 nM | 455 nM
34 | COc1ccnc(OC)c1C1CC(C)C(=O)N1Cc1cccc(-c2ccccc2)c1 (stereo not drawn) [Example 354, 1-([1,1′-biphenyl]-3-ylmethyl)-5-(2,4-dimethoxypyridin-3-yl)-3-methylpyrrolidin-2-one] | – | – | 56 nM | 113 nM
35 | COc1cccc(F)c1[C@@H]1C[C@H](Cl)C(=O)N1Cc1ccc(OC(F)(F)F)cc1 (racemic) [Example 305, rac-(3S*,5S*)-3-chloro-5-(2-fluoro-6-methoxyphenyl)-1-(4-(trifluoromethoxy)benzyl)pyrrolidin-2-one] | – | – | 396 nM | 96 nM
36 | COc1cccc(OC)c1C1CCCCC(=O)N1Cc1ccc(OC(F)(F)F)cc1 (stereo not drawn) [Example 193, 7-(2,6-dimethoxyphenyl)-1-(4-(trifluoromethoxy)benzyl)azepan-2-one] | 257 nM | 66 nM | – | –
